In patent US10208040B2, “Fused imidazo-piperidine JAK inhibitors” (THERAVANCE BIOPHARMA R&D IP, LLC, priority 2017, dated 2019):

How the values were obtained:
[1] = tested on: IL-2/anti-CD3 stimulated IFNγ in human PBMCs; experiment: Inhibition of IL-2/anti-CD3 stimulated IFNγ in human PBMCs; format: cell-based; conditions: PBMC, read-out: pIC50 inhibition of IL-2/anti-CD3 stimulated IFNγ (converted)
Protocol: The potency of the test compound for inhibition of interleukin-2 (IL-2)/anti-CD3 stimulated interferon gamma (IFNγ) was measured in human peripheral blood mononuclear cells (PBMCs) isolated from human whole blood (Stanford Blood Center). Because IL-2 signals through JAK, this assay provides a measure of JAK cellular potency.
(1) Human peripheral blood mononuclear cells (PBMC) were isolated from human whole blood of healthy donors using a ficoll gradient. Cells were cultured in a 37° C., 5% CO2 humidified incubator in RPMI (Life Technologies) supplemented with 10% Heat Inactivated Fetal Bovine Serum (FBS, Life Technologies), 2 mM Glutamax (Life Technologies), 25 mM HEPES (Life Technologies) and 1× Pen/Strep (Life Technologies). Cells were seeded at 200,000 cells/well in media (50 μL) and cultured for 1 h. Compounds were serially diluted in DMSO and then diluted another 500-fold (to a 2× final assay concentration) in media. Test compounds (100 μL/well) were added to cells, and incubated at 37° C., 5% CO2 for 1 h, followed by the addition of IL-2 (R&D Systems; final concentration 100 ng/mL) and anti-CD3 (BD Biosciences; final concentration 1 μg/mL) in pre-warmed assay media (50 μL) for 24 h.
(2) After cytokine stimulation, cells were centrifuged at 500 g for 5 min and supernatants removed and frozen at −80° C. To determine the inhibitory potency of the test compound in response to IL-2/anti-CD3, supernatant IFNγ concentrations were measured via ELISA (R&D Systems). IC50 values were determined from analysis of the inhibition curves of concentration of IFNγ vs compound concentration. Data are expressed as pIC50 (negative decadic logarithm IC50) values.

JAK1 = JAK1 (Homo sapiens (Human), UniProt P23458); experiment: Biochemical JAK kinase assay (LanthaScreen), JAK1
Protocol: (§1) A panel of four LanthaScreen JAK biochemical assays (JAK1, 2, 3 and Tyk2) were carried in a common kinase reaction buffer (50 mM HEPES, pH 7.5, 0.01% Brij-35, 10 mM MgCl2, and 1 mM EGTA). Recombinant GST-tagged JAK enzymes and a GFP-tagged STAT1 peptide substrate were obtained from Life Technologies.
(§2) Serially diluted compounds were pre-incubated with each of the four JAK enzymes and the substrate in white 384-well microplates (Corning) at ambient temperature for 1 h. ATP was subsequently added to initiate the kinase reactions in 10 μL total volume, with 1% DMSO. […] The plates were allowed to incubate at ambient temperature for 1 h before being read on the EnVision reader (Perkin Elmer).
(§3) For dose-response analysis, percent inhibition data were plotted vs. compound concentrations, and IC50 values were determined from a 4-parameter robust fit model with the Prism software (GraphPad Software). Results were expressed as pIC50 (negative logarithm of IC50) and subsequently converted to pKi (negative logarithm of dissociation constant, Ki) using the Cheng-Prusoff equation.

[2] = tested on: IL-13 induced STAT6 phosphorylation in BEAS-2B human lung epithelial cells; experiment: Cellular JAKI potency assay (AlphaScreen, BEAS-2B); format: cell-based; conditions: BEAS-2B cells
Protocol: The AlphaScreen JAKI cellular potency assay was carried out by measuring interleukin-13 (IL-13, R&D Systems) induced STAT6 phosphorylation in BEAS-2B human lung epithelial cells (ATCC). The anti-STAT6 antibody (Cell Signaling Technologies) was conjugated to AlphaScreen acceptor beads (Perkin Elmer), while the anti-pSTAT6 (pTyr641) antibody (Cell Signaling Technologies) was biotinylated using EZ-Link Sulfo-NHS-Biotin (Thermo Scientific).
BEAS-2B cells were grown at 37° C. in a 5% CO2 humidified incubator in 50% DMEM/50% F-12 medium (Life Technologies) supplemented with 10% FBS (Hyclone), 100 U/mL penicillin, 100 μg/mL streptomycin (Life Technologies), and 2 mM GlutaMAX (Life Technologies). On day 1 of the assay, cells were seeded at a 7,500 cells/well density in white poly-D-lysine-coated 384-well plates (Corning) with 25 μL medium, and were allowed to adhere overnight in the incubator. On day 2 of the assay, the medium was removed and replaced with 12 μL of assay buffer (Hank's Balanced Salt Solution/HBSS, 25 mM HEPES, and 1 mg/ml bovine serum albumin/BSA) containing dose-responses of test compounds. Compounds were serially diluted in DMSO and then diluted another 1000-fold in media to bring the final DMSO concentration to 0.1%. Cells were incubated with test compounds at 37° C. for 1 h, and followed by the addition of 12 μl of pre-warmed IL-13 (80 ng/mL in assay buffer) for stimulation. After incubating at 37° C. for 30 min, the assay buffer (containing compound and IL-13) was removed, and 10 μL of cell lysis buffer (25 mM HEPES, 0.1% SDS, 1% NP-40, 5 mM MgCl2, 1.3 mM EDTA, 1 mM EGTA, and supplement with Complete Ultra mini protease inhibitors and PhosSTOP from Roche Diagnostics). The plates were shaken at ambient temperature for 30 min before the addition of detection reagents. A mixture of biotin-anti-pSTAT6 and anti-STAT6 conjugated acceptor beads was added first and incubated at ambient temperature for 2 h, followed by the addition of streptavidin conjugated donor beads (Perkin Elmer). After a minimum of 2 h incubation, the assay plates were read on the EnVision plate reader. AlphaScreen luminescence signals were recorded and utilized to calculate the percent inhibition values based on DMSO and background controls.
For dose-response analysis, percent inhibition data were plotted vs. compound concentrations, and IC50 values were determined from a 4-parameter robust fit model with the Prism software. Results may also be expressed as the negative logarithm of the IC50 value, pIC50.
Test compounds having a lower IC50 value or higher pIC50 value in this assay show greater inhibition of IL-13 induced STAT6 phosphorylation.

JAK2 = JAK2 (Homo sapiens (Human), UniProt O60674); experiment: Biochemical JAK kinase assay (LanthaScreen), JAK2
Protocol: as §1, §2, §3

Tyk2 = Tyk2 (Homo sapiens (Human), UniProt P29597); experiment: Biochemical JAK kinase assay (LanthaScreen), Tyk2
Protocol: as §1, §2, §3

JAK3 = JAK3 (Homo sapiens (Human), UniProt P52333); experiment: Biochemical JAK kinase assay (LanthaScreen), JAK3
Protocol: as §1, §2, §3

Chain of JAK2 (O60674 whole entry): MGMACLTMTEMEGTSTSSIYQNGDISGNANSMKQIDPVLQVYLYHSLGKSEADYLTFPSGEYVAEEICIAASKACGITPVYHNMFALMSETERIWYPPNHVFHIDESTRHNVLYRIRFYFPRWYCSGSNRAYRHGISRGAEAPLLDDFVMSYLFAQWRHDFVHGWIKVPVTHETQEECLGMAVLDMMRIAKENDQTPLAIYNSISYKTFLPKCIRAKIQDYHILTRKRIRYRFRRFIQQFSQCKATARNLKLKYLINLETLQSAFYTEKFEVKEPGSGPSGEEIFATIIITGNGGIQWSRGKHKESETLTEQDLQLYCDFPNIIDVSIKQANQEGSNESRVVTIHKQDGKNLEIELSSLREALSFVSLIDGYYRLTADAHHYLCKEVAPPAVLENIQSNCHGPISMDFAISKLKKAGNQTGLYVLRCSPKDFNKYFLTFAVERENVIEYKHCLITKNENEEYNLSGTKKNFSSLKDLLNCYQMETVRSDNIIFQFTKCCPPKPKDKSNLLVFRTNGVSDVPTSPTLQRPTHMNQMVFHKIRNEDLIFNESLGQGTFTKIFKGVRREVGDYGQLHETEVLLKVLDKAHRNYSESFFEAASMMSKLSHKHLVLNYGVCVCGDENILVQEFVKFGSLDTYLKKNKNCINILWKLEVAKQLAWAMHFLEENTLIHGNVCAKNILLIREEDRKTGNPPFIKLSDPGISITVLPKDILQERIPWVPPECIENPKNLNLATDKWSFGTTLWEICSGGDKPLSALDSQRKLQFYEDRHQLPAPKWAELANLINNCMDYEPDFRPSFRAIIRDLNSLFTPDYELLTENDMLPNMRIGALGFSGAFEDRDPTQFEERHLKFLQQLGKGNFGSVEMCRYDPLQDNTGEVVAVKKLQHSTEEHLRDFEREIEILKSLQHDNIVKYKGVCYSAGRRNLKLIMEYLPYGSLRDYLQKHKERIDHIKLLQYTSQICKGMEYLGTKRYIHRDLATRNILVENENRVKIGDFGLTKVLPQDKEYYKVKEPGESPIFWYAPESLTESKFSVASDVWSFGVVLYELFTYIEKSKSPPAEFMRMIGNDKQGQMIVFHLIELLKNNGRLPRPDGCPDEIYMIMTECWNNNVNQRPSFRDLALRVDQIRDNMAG
Chain of Tyk2 (P29597 whole entry): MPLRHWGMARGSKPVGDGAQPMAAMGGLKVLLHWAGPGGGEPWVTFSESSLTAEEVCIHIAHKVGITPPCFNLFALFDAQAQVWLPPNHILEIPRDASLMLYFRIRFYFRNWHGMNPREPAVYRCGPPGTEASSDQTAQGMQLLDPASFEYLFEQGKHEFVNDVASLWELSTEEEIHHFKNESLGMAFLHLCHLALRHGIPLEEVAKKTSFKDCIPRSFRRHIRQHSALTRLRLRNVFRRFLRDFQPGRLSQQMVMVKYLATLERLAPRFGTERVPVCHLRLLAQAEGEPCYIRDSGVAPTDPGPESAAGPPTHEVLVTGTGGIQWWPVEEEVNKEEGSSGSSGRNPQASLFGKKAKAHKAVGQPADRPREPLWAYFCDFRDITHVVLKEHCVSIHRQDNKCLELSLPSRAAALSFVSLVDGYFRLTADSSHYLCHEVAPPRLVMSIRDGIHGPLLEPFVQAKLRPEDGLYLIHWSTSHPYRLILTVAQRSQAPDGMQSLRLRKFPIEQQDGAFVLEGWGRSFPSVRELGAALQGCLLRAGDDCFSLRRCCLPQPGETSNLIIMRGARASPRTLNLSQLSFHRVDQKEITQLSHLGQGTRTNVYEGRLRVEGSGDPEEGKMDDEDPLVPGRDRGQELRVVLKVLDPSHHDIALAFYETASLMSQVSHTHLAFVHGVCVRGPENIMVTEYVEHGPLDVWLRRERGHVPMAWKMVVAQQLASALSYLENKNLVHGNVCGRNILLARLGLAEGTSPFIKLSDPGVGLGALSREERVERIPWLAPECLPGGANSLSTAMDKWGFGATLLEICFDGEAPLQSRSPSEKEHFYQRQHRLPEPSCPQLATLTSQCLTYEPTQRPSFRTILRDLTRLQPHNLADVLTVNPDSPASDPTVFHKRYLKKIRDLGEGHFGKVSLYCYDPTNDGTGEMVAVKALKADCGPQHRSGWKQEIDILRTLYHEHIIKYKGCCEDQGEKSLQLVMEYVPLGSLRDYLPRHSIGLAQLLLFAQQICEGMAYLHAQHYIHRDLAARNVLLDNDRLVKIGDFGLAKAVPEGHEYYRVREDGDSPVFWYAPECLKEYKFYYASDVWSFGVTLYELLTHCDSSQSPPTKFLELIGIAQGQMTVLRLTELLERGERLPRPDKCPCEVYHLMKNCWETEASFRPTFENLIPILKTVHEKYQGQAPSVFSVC
Chain of JAK3 (P52333 whole entry): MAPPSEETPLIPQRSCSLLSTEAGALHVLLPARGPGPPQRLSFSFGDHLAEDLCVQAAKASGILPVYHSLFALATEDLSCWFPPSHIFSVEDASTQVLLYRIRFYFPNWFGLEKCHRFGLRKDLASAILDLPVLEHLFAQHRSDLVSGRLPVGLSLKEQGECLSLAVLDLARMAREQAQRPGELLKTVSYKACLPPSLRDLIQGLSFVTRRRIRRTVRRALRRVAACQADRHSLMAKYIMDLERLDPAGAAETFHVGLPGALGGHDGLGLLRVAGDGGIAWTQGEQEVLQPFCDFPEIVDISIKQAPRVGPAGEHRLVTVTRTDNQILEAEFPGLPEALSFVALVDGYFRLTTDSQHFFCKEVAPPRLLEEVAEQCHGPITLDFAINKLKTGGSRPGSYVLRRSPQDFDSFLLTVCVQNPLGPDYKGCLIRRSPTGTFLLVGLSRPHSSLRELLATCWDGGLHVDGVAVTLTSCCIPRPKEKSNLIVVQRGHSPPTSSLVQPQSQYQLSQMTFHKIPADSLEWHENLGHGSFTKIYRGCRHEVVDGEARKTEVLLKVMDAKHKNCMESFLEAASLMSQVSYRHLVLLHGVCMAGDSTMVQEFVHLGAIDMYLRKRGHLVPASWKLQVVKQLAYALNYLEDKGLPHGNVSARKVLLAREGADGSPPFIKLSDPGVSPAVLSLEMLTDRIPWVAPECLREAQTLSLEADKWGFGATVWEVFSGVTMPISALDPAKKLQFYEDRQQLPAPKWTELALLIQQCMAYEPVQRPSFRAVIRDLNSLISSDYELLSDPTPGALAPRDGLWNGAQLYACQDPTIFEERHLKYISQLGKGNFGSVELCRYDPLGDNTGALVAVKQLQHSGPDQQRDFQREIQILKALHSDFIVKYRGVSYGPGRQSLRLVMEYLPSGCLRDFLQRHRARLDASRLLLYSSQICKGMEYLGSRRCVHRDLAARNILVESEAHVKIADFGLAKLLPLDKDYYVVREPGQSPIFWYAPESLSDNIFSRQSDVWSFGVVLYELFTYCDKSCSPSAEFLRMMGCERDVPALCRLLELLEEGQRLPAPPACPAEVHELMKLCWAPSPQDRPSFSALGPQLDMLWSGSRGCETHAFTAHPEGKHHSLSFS
Chain of JAK1 (P23458 whole entry): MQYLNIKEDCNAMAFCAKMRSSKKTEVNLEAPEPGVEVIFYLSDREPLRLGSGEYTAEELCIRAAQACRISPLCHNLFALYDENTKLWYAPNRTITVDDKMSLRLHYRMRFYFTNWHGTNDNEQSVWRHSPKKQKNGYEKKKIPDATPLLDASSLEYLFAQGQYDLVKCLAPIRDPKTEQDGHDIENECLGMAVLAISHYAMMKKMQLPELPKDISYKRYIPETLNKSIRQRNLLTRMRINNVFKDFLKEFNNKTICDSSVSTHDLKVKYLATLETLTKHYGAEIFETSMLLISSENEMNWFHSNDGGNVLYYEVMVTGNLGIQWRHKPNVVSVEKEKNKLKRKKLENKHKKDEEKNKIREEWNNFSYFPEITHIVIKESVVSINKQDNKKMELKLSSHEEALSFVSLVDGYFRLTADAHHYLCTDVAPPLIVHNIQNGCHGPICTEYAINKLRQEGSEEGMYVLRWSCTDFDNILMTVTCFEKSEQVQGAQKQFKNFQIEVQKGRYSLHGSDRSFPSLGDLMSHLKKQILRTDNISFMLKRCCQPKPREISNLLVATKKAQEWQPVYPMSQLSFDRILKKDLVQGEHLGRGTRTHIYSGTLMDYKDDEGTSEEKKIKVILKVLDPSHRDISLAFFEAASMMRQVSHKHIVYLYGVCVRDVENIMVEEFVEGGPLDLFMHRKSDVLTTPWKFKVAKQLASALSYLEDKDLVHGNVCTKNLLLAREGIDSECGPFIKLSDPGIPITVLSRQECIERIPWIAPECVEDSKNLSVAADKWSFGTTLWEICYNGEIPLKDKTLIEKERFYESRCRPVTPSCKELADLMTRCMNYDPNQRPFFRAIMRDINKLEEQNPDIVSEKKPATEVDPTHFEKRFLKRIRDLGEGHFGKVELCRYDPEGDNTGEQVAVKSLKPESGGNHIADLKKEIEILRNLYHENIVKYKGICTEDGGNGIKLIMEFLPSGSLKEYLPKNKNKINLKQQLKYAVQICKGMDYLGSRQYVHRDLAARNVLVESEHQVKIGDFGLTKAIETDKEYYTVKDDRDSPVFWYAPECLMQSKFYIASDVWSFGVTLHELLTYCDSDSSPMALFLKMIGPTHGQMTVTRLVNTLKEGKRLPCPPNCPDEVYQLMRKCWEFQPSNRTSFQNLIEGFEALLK

CCCN1Cc2[nH]c(-c3n[nH]c4cc(-c5cc(F)c(O)cc5CC)ccc34)nc2C[C@H]1C(=O)N1C[C@@H]2C[C@H]1CN2C [Example 1, ((S)-2-(6-(2-ethyl-5-fluoro-4-hydroxyphenyl)-1H-indazol-3-yl)-5-propyl-4,5,6,7-tetrahydro-3H-imidazo[4,5-c]pyridin-6-yl)((1S,4S)-5-methyl-2,5-diazabicyclo-[2.2.1]heptan-2-yl)methanone]
IC50 [1]: ~126000 pM | Ki (JAK1): 50 pM | IC50 [2]: 5000 pM | Ki (JAK2): 20 pM | Ki (Tyk2): 250 pM | Ki (JAK3): 80 pM

CCc1cc(O)c(F)cc1-c1ccc2c(-c3nc4c([nH]3)CN(CC)[C@@H](C(=O)N3CCN(C(C)(C)C)CC3)C4)n[nH]c2c1 [Example 1-37]
IC50 [1]: ~63100 pM | Ki (JAK1): 100 pM | IC50 [2]: 5900 pM | Ki (JAK2): 40 pM | Ki (Tyk2): 1260 pM | Ki (JAK3): 500 pM

CCc1cc(O)c(F)cc1-c1ccc2c(-c3nc4c([nH]3)CN(C(C)C)[C@H](C(=O)N3CC[C@H](N(C)C)C3)C4)n[nH]c2c1 [Example 3]
IC50 [1]: ~63100 pM | Ki (JAK1): 60 pM | IC50 [2]: 5900 pM | Ki (JAK2): 20 pM | Ki (Tyk2): 400 pM | Ki (JAK3): 100 pM
